This is an account of results in patent US20260193602A1, “CULTURE MEDIUM COMPOSITION” (AJINOMOTO CO., INC., priority 2023, published 2026).

SMILES strings stand for the structures.

Assay [1] relates to HEK293 (Viral Production Cells 2.0) producing AAV8. Briefly: Production of AAV in HEK293 in suspension culture system (AAV8 genome titer by real-time PCR, viral particles by ELISA, full capsid ratio). It is filed as cell-based, human. Background: Quantitative PCR measures a nucleic acid by following its amplification.
Assay [2] concerns HEK293 2.sus producing Human adenovirus 32. As to conditions: Example 6; CDM4HEK293 with or without β-alanine; MOI 0.1.
Method: The entire volume is placed in a 50 ml tube, 29 mL of glutamine-containing 293 SFM II is added thereto and the cells are suspended. 5 mL of the cell suspension is placed in a Petri dish and culturing with shaking (50 rpm) is performed in a CO2 incubator (temperature setting: 37° C., CO2 concentration: 5%, model: MCO-170AICUV-PJ, Panasonic Healthcare Co., Ltd.) for 2-3 days. • (4) After culturing, the culture solution is recovered and transferred to a 15 mL centrifuge tube. • (5) Centrifugation is performed for 5 min (1000 rpm, 190×g, 24° C.) and the supernatant is removed. • (6) 1 ML of glutamine-containing 293 SFM II is added to the 15 mL centrifuge tube and the cells are resuspended. The cell number is measured using a hemocytometer and glutamine-containing 293 SFM II is added to 3×10^5 cells/mL. […] The cell number is measured using a hemocytometer and the culture solution is added to 3×10^5 cells/mL. […]

For `Cl.Cl.Cl.NCCCCNCCCN` [spermidine trihydrochloride], the “AAV8 genome titer (relative)” value in assay [1] (Example 4, spermidine trihydrochloride final concentration 30 μM or 100 μM, FIG. 6) is listed as “improvements”; in assay [1] (Example 5, spermidine trihydrochloride 200 μM alone, FIG. 8) it was “improved”. The “full capsid ratio (relative)” value in assay [1] (Example 4, spermidine trihydrochloride final concentration 30 μM or 100 μM, FIG. 7) is listed as “improvements”.
With `NCCC(=O)O` [β-alanine], the “AAV8 genome titer (relative)” value in assay [1] (Example 1, β-alanine final concentration 100 μM, vs medium without β-alanine = 100%, FIG. 1) is on record as “improvements”; in assay [1] (Example 2, β-alanine final concentration 100 μM, FIG. 3) it was “improvement”; in assay [1] (Example 2, β-alanine final concentration 300 μM, FIG. 3), “improvement”; in assay [1] (Example 5, β-alanine 300 μM alone, FIG. 8), “improved”. The “full capsid ratio (relative)” value is recorded as “improvements” in assay [1] (Example 1, β-alanine final concentration 100 μM, vs medium without β-alanine = 100%, FIG. 2) and “improvement” in assay [1] (Example 3, β-alanine final concentration 300 μM, FIG. 5). Besides, in assay [1] (Example 3, β-alanine final concentration 300 μM, FIG. 4), the “virus count (capsid count (relative))” value is recorded as “increase”. Besides, in assay [2], the adenovirus titer result is recorded as “Improvement”.
